Where “and” joins values, the source holds several entries; their conditions need not be identical. Equal values may be shown once.
Experiments:
[1] = Accelerated stability (stress test 5 days at 53° C.) of starting material lots prior to / after mixing with calcium oxide; type: physicochemical; conditions: for Moisture content % K.F. (stress test) / Total impurities % (stress test) / % S,S (stress test) / SAMe titre % (stress test): 5 days at 53° C.; for permanent removal of the moisture content: mixture with calcium oxide after the stress test at 53° C. for 5 days
[2] = Analysis of starting material lots (SAMe salts, NADH) prior to / after mixing with calcium oxide, t = 0 and storage at 20° C. for 21 days; type: physicochemical; conditions: for permanent removal of the moisture content: mixture with calcium oxide stored for 21 days at 20° C.; for residual moisture content: starting material
[3] = after mixing with calcium oxide
[4] = prior to mixing with calcium oxide

Row | Molecule | Moisture content % K.F. (stress test) [1, 3] | Total impurities % (stress test) [1, 3] | permanent removal of the moisture content [1] | Moisture content % K.F. (stress test) [1, 4] | Total impurities % (stress test) [1, 4] | Moisture content % K.F. t = 0 [2, 3] | Moisture content % K.F. t = 21 days at 20° C. [2, 3] | permanent removal of the moisture content [2] | Moisture content % K.F. t = 0 [2, 4] | Moisture content % K.F. t = 21 days at 20° C. [2, 4] | residual moisture content [2] | % S,S (stress test) [1, 3] | SAMe titre % (stress test) [1, 3] | % S,S (stress test) [1, 4] | SAMe titre % (stress test) [1, 4] | % S,S t = 0 [2, 3] | SAMe titre % t = 0 [2, 3] | Total impurities % t = 0 [2, 3] | % S,S t = 0 [2, 4] | SAMe titre % t = 0 [2, 4] | other results
1 | NC(=O)C1=CN([C@@H]2O[C@H](COP(=O)(O)OP(=O)(O)OC[C@H]3O[C@@H](n4cnc5c(N)ncnc54)[C@H](O)[C@@H]3O)[C@@H](O)[C@H]2O)C=CC1 [NADH] | 3.23% and 3.54% and 3.10% and 3.49% and 3.45% | 2.67% and 3.14% and 3.02% and 2.45% and 3.54% | approximately 60% | 6.23% and 6.54% and 5.00% and 6.09% and 6.05% | 8.55% and 7.34% and 7.02% and 7.17% and 7.54% | 6.44% and 7.23% and 6.87% and 6.21% and 6.33% | 4.01% and 4.39% and 3.98% and 3.20% and 4.32% | approximately 40% | 6.66% and 7.09% and 5.94% and 6.45% and 6.38% | 6.34% and 6.87% and 5.76% and 6.32% | 5-7 % K.F. | – | – | – | – | – | – | – | – | – | NADH (sodium salt) titre % t = 0 (stress test) [1, 3]: 80.56% and 82.56% and 82.49% and 81.19% and 82.34%; NADH (sodium salt) titre % t = 0 (stress test) [1, 4]: 83.11% and 84.58% and 83.99% and 82.19% and 83.84%; NADH (sodium salt) titre % t = 0 ([2]; after mixing with 10% of calcium oxide): 83.93 (*) % and 84.23 (*) % and 83.95 (*) % and 84.53 (*) % and 85.32 (*) %; NADH (sodium salt) titre % t = 0 [2, 4]: 92.73% and 92.23% and 92.45% and 92.43% and 91.98%
2 | C[S+](CC[C@H](N)C(=O)O)C[C@H]1O[C@@H](n2cnc3c(N)ncnc32)[C@H](O)[C@@H]1O.Cc1ccc(S(=O)(=O)[O-])cc1 (some centres unmarked) [S-adenosyl methionine paratoluene sulphonate] | 0.35% and 0.38% and 0.43% and 0.41% and 0.39% | 2.89% and 3.02% and 3.17% and 2.78% and 2.65% | approximately 60% | 0.99% and 1.00% and 1.09% and 1.05% and 1.03% | 4.34% and 5.02% and 5.17% and 5.54% and 4.55% | 1.04% and 0.95% and 0.98% and 1.16% and 1.00% | 0.59% and 0.61% and 0.63% and 0.55% and 0.70% | approximately 40% | 1.09% and 1.04% and 1.15% and 1.08% and 1.06% | 1.09% and 1.12% and 1.13% and 1.05% and 1.03% | – | 65.79% and 67.25% and 66.47% and 65.43% and 66.56% | 49.98% and 49.87% and 50.09% and 50.00% and 49.81% | 55.79% and 55.28% and 56.21% and 56.31% and 56.12% | 49.58% and 49.99% and 51.19% and 50.84% and 50.11% | 79.99% and 81.23% and 80.67% and 80.32% and 80.11% | 50.23% and 50.19% and 50.22% and 50.02% and 50.16% | 0.94% and 1.04% and 0.66% and 0.73% and 1.03% | 79.82% and 81.54% and 80.87% and 80.02% and 80.21% | 52.23% and 52.29% and 52.96% and 51.98% and 52.76% | Total impurities % t = 0 [2, 4]: 0.94% and 1.04% and 0.66% and 0.73% and 1.03%
3 | C[S+](CC[C@H](N)C(=O)[O-])C[C@H]1O[C@@H](n2cnc3c(N)ncnc32)[C@H](O)[C@@H]1O (some centres unmarked) [SAMe, S-adenosyl methionine] | – | – | – | – | – | – | – | – | – | – | 1-1.5 % K.F. | – | – | – | – | – | – | – | – | – | –
4 | S-adenosyl methionine-1,4-butene disulphonate | 0.81% and 0.88% and 0.78% and 0.87% and 0.93% | 2.13% and 1.35% and 2.03% and 1.98% and 2.00% | approximately 60% | 1.96% and 1.93% and 2.09% and 2.21% and 2.00% | 4.63% and 4.47% and 4.06% and 4.23% and 4.05% | 1.80% and 1.84% and 1.94% and 1.89% and 1.87% | 1.38% and 1.40% and 1.33% and 1.45% and 1.27% | approximately 40% | 1.89% and 1.94% and 2.03% and 2.01% and 1.98% | 1.99% and 2.02% and 2.03% and 2.31% | – | 71.89% and 70.94% and 70.34% and 70.02% and 71.32% | 50.04% and 50.00% and 50.01% and 49.89% | 59.49% and 58.98% and 59.43% and 60.02% and 60.32% | 51.72% and 50.79% and 50.94% and 50.93% and 51.03% | 84.54% and 85.25% and 84.21% and 85.02% and 83.49% | 50.34% and 50.08% and 50.01% and 49.78% and 50.12% | 0.57% and 0.53% and 0.49% and 0.50% | 84.82% and 85.34% and 84.58% and 83.89% | 52.02% and 51.78% and 51.34% and 51.54% and 52.34% | Total impurities % t = 0 [2, 4]: 0.67% and 0.64% and 0.44% and 0.56% and 0.45%

— patent US10471088B2 (GNOSIS SPA, priority 2006, dated 2019)
